Patent US7267670B2, “Reinforced urethral suppository” (priority 2001, dated 2007)

Test system: over active bladder
Details: oral, 5 mg pills three times per day
Method: Their doctor prescribes an anti-cholinergic agent, oxybutynin chloride, taken orally three times per day in 5 mg pills.
Alternatively, their doctor prescribes an oxybutynin urethral suppository of the invention. Before leaving home, they open the individually wrapped suppository, grasping it by the handle; they insert the meltable portion, containing up to 5 mg of oxybutynin chloride, into their urethra. […] If necessary, the person can remove the remaining portions of the suppository and insert a new suppository to prevent uncontrolled voiding episodes.

## CCN(CC)CC#CCOC(=O)C(O)(c1ccccc1)C1CCCCC1 (centres unmarked) [oxybutynin chloride]
Patient one
  effect on uncontrolled voiding episodes: eliminates the uncontrolled voiding episodes
Patient two
  side effects: severe dry mouth and dizziness
